Source: patent publication US20230227466A1, “SUBSTITUTED THIENOPYRIMIDINES THAT INTERACT WITH THE RAS SUPERFAMILY FOR THE TREATMENT OF CANCERS, INFLAMMATORY DISEASES, RASOPATHIES, AND FIBROTIC DISEASE” (SHY Therapeutics, LLC, priority 2020, published 2023)
Where two headings read alike, the source gives them in different places.

Tests used:
KRas G12C mutant = molecular target: T1, KRas G12C mutant (Homo sapiens, UniProt P01116, G12C); test: Ras GTP binding domain inhibition assay (labeled-GTP competition, cell-free)
T1 construct: made in house
Procedure, shortened: (§1)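 First, the His-tagged protein was captured overnight at 4° C on nickel wells. Second, compound was applied at 20 μM or as a dilution series for IC50 over 3 h. Third, 100 nM Cy3- or Cy5-GTP was added for 45 min. Finally, wells were washed and bound label quantified.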

KRas G12D mutant = molecular target: T2, KRas G12D mutant (Homo sapiens, UniProt P01116, G12D); test: as above
T2 construct: made in house
Procedure, shortened: as §1

KRas Q61H mutant = molecular target: T3, KRas Q61H mutant (Homo sapiens, UniProt P01116, Q61H); test: as above; settings: at 20 μM
T3 construct: made in house
Procedure, shortened: as §1

[1] = test system: MIA-PaCa-2 pancreatic cancer cell line (KRAS G12C); test: Cell proliferation assay (CellTiter 96 Aqueous One); format: cell-based; settings: Homo sapiens; for IC50: MIA PaCa-2, MIA PaCa-2; for inhibition at 10 µM: MIA PaCa-2, read-out: % inh cell proliferation (10 μM) in MIA PaCa-2
Procedure, shortened: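 Read-out is MTS-based viability (CellTiter 96 Aqueous One) after 2–4 days of compound exposure at 37 °C in 10% FBS with 0.3% DMSO.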

[2] = with SOS, read-out: KRas G12C mutant + SOS: % inh.
[3] = without SOS, read-out: KRas G12C mutant: % inh.
[4] = with SOS, read-out: KRas G12D mutant + SOS: % inh.
[5] = without SOS, read-out: KRas G12D mutant: % inh.
[6] = with SOS, read-out: KRas Q61H mutant + SOS: % inh.
[7] = without SOS, read-out: KRas Q61H mutant: % inh.

Row | Structure (SMILES) | inhibition at 20 µM (KRas G12C mutant; [2]) | inhibition at 20 µM (KRas G12C mutant; [3]) | inhibition at 20 µM (KRas G12D mutant; [4]) | inhibition at 20 µM (KRas G12D mutant; [5]) | inhibition at 20 µM (KRas Q61H mutant; [6]) | inhibition at 20 µM (KRas Q61H mutant; [7]) | IC50 [1] | inhibition at 10 µM [1]
1 | Cc1c(-c2ccn(C(C)C)n2)sc2nc(-c3nccn3C)nc(NCCc3nnn[nH]3)c12 [Compound 46, N-(2-(1H-Tetrazol-5-yl)ethyl)-6-(1-isopropyl-1H-pyrazol-3-yl)-5-methyl-2-(1-methyl-1H-imidazol-2-yl)thieno[2,3-d]pyrimidin-4-amine] | 51 to 75% | 51 to 75% | 76 to 100% | 26 to 50% | 76 to 100% | 76 to 100% | > 10 µM | 1 to 25%
2 | CO[C@H]1C[C@@H](CNc2nc(-c3nccn3C)nc3sc(-c4ccn(C(C)C)n4)c(C)c23)C1 [Compound 47, 6-(1-Isopropyl-1H-pyrazol-3-yl)-N-(((1s,3s)-3-methoxycyclobutyl)methyl)-5-methyl-2-(1-methyl-1H-imidazol-2-yl)thieno[2,3-d]pyrimidin-4-amine] | 76 to 100% | 51 to 75% | 51 to 75% | 51 to 75% | 76 to 100% | 51 to 75% | < 1 µM | 76 to 100%
3 | CO[C@H]1C[C@H](CNc2nc(-c3nccn3C)nc3sc(-c4ccn(C(C)C)n4)c(C)c23)C1 [Compound 48, 6-(1-Isopropyl-1H-pyrazol-3-yl)-N-(((1r,3r)-3-methoxycyclobutyl)methyl)-5-methyl-2-(1-methyl-1H-imidazol-2-yl)thieno[2,3-d]pyrimidin-4-amine] | 51 to 75% | 51 to 75% | 51 to 75% | 26 to 50% | 51 to 75% | 51 to 75% | < 1 µM | 76 to 100%
4 | CO[C@H]1CCCN(c2nc(-c3nccn3C)nc3sc(-c4ccn(C(C)C)n4)c(C)c23)C1 [Compound 49, (S)-6-(1-Isopropyl-1H-pyrazol-3-yl)-4-(3-methoxypiperidin-1-yl)-5-methyl-2-(1-methyl-1H-imidazol-2-yl)thieno[2,3-d]pyrimidine] | 51 to 75% | 1 to 25% | 26 to 50% | 0% | 51 to 75% | 51 to 75% | 5 to 10 µM | 76 to 100%
5 | CO[C@@H]1CCCN(c2nc(-c3nccn3C)nc3sc(-c4ccn(C(C)C)n4)c(C)c23)C1 [Compound 50, (R)-6-(1-Isopropyl-1H-pyrazol-3-yl)-4-(3-methoxypiperidin-1-yl)-5-methyl-2-(1-methyl-1H-imidazol-2-yl)thieno[2,3-d]pyrimidine] | 51 to 75% | 26 to 50% | 1 to 25% | 0% | 51 to 75% | 26 to 50% | – | 76 to 100%
6 | Cc1c(-c2ccn(C(C)C)n2)sc2nc(-c3nccn3C)nc(NC[C@@H]3CCC(=O)N3)c12 [Compound 51] | 26 to 50% | 51 to 75% | 51 to 75% | 26 to 50% | 51 to 75% | 51 to 75% | > 10 µM | 0%
7 | Cc1c(-c2ccn(C(C)C)n2)sc2nc(-c3nccn3C)nc(NC[C@H]3CCC(=O)N3)c12 [Compound 52, (R)-5-(((6-(1-Isopropyl-1H-pyrazol-3-yl)-5-methyl-2-(1-methyl-1H-imidazol-2-yl)thieno[2,3-d]pyrimidin-4-yl)amino)methyl)pyrrolidin-2-one] | 26 to 50% | 51 to 75% | 51 to 75% | 51 to 75% | 51 to 75% | 51 to 75% | > 10 µM | 1 to 25%
8 | Cc1c(-c2ccn(C(C)C)n2)sc2nc(-c3nccn3C)nc(NCCc3ncc[nH]3)c12 [Compound 53, N-(2-(1H-Imidazol-2-yl)ethyl)-6-(1-isopropyl-1H-pyrazol-3-yl)-5-methyl-2-(1-methyl-1H-imidazol-2-yl)thieno[2,3-d]pyrimidin-4-amine] | 26 to 50% | 26 to 50% | 26 to 50% | 1 to 25% | 26 to 50% | 26 to 50% | 5 to 10 µM | 76 to 100%
9 | CO[C@H]1CC[C@H](Nc2nc(-c3nccn3C)nc3sc(-c4ccn(C(C)C)n4)c(C)c23)CC1 [Compound 54] | 76 to 100% | 76 to 100% | 76 to 100% | 51 to 75% | 76 to 100% | 51 to 75% | < 1 µM | 76 to 100%
10 | CO[C@H]1CC[C@@H](Nc2nc(-c3nccn3C)nc3sc(-c4ccn(C(C)C)n4)c(C)c23)CC1 [Compound 55] | 26 to 50% | 26 to 50% | 26 to 50% | 51 to 75% | 26 to 50% | 1 to 25% | < 1 µM | 76 to 100%
11 | Cc1c(-c2ccn(C(C)C)n2)sc2nc(-c3nccn3C)nc(NCc3ncc[nH]3)c12 [Compound 57, N-((1H-Imidazol-2-yl)methyl)-6-(1-isopropyl-1H-pyrazol-3-yl)-5-methyl-2-(1-methyl-1H-imidazol-2-yl)thieno[2,3-d]pyrimidin-4-amine] | 26 to 50% | 26 to 50% | 26 to 50% | 1 to 25% | 26 to 50% | 26 to 50% | 5 to 10 µM | 51 to 75%
12 | Cc1c(-c2ccn(C(C)C)n2)sc2nc(-c3nccn3C)nc(NCCc3cn(C)cn3)c12 [Compound 58, 6-(1-Isopropyl-1H-pyrazol-3-yl)-5-methyl-2-(1-methyl-1H-imidazol-2-yl)-N-(2-(1-methyl-1H-imidazol-4-yl)ethyl)thieno[2,3-d]pyrimidin-4-amine] | 76 to 100% | 76 to 100% | 51 to 75% | 26 to 50% | 51 to 75% | 51 to 75% | 5 to 10 µM | 76 to 100%
13 | COc1cccc(Nc2nc(-c3nccn3C)nc3sc(-c4ccn(C(C)C)n4)c(C)c23)n1.Cl [Compound 65, 6-(1-Isopropyl-1H-pyrazol-3-yl)-N-(6-methoxypyridin-2-yl)-5-methyl-2-(1-methyl-1H-imidazol-2-yl)thieno[2,3-d]pyrimidin-4-amine hydrochloride salt] | 76 to 100% | 26 to 50% | 51 to 75% | 26 to 50% | 51 to 75% | 26 to 50% | 5 to 10 µM | 76 to 100%
14 | COc1cc(Nc2nc(-c3nccn3C)nc3sc(-c4ccn(C(C)C)n4)c(C)c23)ccn1 [Compound 67, 6-(1-Isopropyl-1H-pyrazol-3-yl)-N-(2-methoxypyridin-4-yl)-5-methyl-2-(1-methyl-1H-imidazol-2-yl)thieno[2,3-d]pyrimidin-4-amine] | 51 to 75% | 26 to 50% | 51 to 75% | 0% | 51 to 75% | 51 to 75% | 5 to 10 µM | 76 to 100%
